Assay [1] concerns PRMT5-dependent Symmetric Di-methyl Arginine signal in HCT116 homozygous MTAP Knockout cells. The assay can be described thus: SYM11 In-Cell Western in HCT116 homozygous MTAP knockout cells. Type of assay: cell-based. The method, then: HCT116 cells were genetically engineered to knock out the function of both MTAP alleles using a CRISPR/Cas9 system and an sgRNA targeting the MTAP gene. Following Cas9/MTAP sgRNA transduction, clones were screened to confirm that each allele of the MTAP gene had been inactivated (i.e., homozygous MTAP knock out) creating an MTAP-deficient cell.
Control samples were analyzed in parallel.
Briefly, on Day 0, 2,000 HCT116 parental or HCT116 homozygous MTAP knockout cells were seeded in 96 well plates in McCoy's 5A supplemented with 10% fetal bovine serum and pen/strep and the cells were incubated overnight at 37° C. plus 5% CO2. The following day, cells were treated with DMSO vehicle control or a dose response of PRMT5 inhibitors, and incubated at 37° C. plus 5% CO^2 for four days.
After 4 days of treatment, the cells were fixed by adding 50 μl of 4% paraformaldehyde solution to each well and the cells were incubated for 20 min at room temperature. The paraformaldehyde solution was removed, 150 μl of ice-cold methanol was added and the plate was placed −20° C. for 10 minutes. The methanol was removed, 150 μl of Odyssey Blocking buffer+0.05% Tween20 was added and the plate was incubated at room temperature with shaking for one hour.
The primary SYM11 antibody solution was removed by aspiration and the wells were washed three consecutive times with phosphate buffered saline containing 0.1% Tween-20 (PBST).
The secondary antibody solution was removed by aspiration and the wells were washed three consecutive times with PBST.
The SYM11 signal and the DRAQ5 signal were quantified using a Li-Cor Odyssey machine reading at […], respectively. The SYM11/DRAQ5 ratio was used to calculate the inhibition of Symmetric Dimethyl Arginine as percent of DMSO control.

Assay [2] addresses T1, PRMT5/MEP50 complex (Homo sapiens, UniProt O14744).
T1 construct: purchased Reaction Biology Corporation
In words: PRMT5:MEP50 HotSpot Assay (full-length histone H2A substrate, plus and minus MTA). Type of assay: biochemical. To be noted: IC50 + 2 μM MTA, in the presence of 2 μM MTA. The gist of the method:
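Tritiated product on full-length recombinant H2A was counted by scintillation after the stopped reaction was captured on filter paper. Substrate is histone H2A; conditions include plus and minus MTA.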

Assay [3] relates to HCT116 homozygous MTAP knockout cells. The assay can be described thus: Proliferation assay (CellTiter-Glo, 10 days) in HCT116 homozygous MTAP knockout cells. Type of assay: cell-based. To be noted: CellTiter-Glo after 10 days of treatment, read-out: Proliferation IC50 (nM) HCT116 MTAP_KO. The gist of the method:
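CellTiter-Glo viability read on day 11 gives a 10-day IC50. Dosing began one day after seeding, with a 1:10 split into fresh drug-containing medium on day 6. Cells are HCT116 lacking both MTAP alleles via CRISPR/Cas9, run alongside the parental line.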
A general note: ATP-based viability assays read luminescence as a measure of living cells.

The mark [4] stands for this setting: 4 days of treatment, SYM11/DRAQ5 ratio as percent of DMSO control, read-out: In-cell-Western (SYM11) IC50 (nM) HCT116 MTAP_KO.
The mark [5] stands for this setting: Homo sapiens, HCT-116, 96 h, 4 days of treatment, SYM11/DRAQ5 ratio as percent of DMSO control, read-out: In-cell-Western (SYM11) IC50 (nM) HCT116 MTAP_KO.
[6] abbreviates: read-out: In-cell-Western (SYM11) IC50 (nM) HCT116 MTAP_KO, 4 days of treatment, SYM11/DRAQ5 ratio as percent of DMSO control.

SMILES strings stand for the structures. Like-named read-outs stand apart in the source and are kept apart here.

T1 sequence (O14744 2-637 limits assumed): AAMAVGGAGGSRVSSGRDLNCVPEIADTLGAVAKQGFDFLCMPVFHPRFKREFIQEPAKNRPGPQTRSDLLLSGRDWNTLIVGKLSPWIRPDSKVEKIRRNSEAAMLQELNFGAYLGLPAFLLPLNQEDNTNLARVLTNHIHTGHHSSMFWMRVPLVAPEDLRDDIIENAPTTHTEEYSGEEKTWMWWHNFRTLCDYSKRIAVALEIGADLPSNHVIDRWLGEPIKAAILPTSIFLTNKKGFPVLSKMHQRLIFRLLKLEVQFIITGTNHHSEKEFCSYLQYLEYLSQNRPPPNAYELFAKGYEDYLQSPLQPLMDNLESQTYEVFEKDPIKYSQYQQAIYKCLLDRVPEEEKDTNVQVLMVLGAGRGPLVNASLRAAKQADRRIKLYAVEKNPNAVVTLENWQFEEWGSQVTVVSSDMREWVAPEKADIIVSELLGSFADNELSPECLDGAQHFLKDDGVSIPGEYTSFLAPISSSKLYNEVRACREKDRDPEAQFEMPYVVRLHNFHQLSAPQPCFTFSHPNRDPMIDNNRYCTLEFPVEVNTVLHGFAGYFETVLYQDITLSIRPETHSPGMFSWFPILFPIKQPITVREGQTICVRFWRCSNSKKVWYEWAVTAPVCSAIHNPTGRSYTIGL
T1 sequence (Q9BQA1 2-342 partner limits assumed): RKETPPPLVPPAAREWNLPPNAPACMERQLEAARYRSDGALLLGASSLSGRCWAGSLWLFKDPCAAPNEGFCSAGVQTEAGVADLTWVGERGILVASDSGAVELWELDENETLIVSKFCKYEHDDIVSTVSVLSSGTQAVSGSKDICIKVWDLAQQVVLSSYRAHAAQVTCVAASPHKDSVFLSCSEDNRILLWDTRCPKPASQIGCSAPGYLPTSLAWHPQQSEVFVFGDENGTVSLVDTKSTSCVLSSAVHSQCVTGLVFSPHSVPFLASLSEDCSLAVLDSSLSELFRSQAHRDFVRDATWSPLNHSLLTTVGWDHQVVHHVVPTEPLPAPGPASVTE

For `N#Cc1c(OC2CC2)cc(Cl)c(F)c1-c1c(-c2ccc3c(=O)[nH]nc(CN)c3c2)cnn1C(F)(F)F` (atropisomer, axis not shown; (M)) [Example 16-120, (M)-2-(4-(4-(aminomethyl)-1-oxo-1,2-dihydrophthalazin-6-yl)-1-(trifluoromethyl)-1H-pyrazol-5-yl)-4-chloro-6-cyclopropoxy-3-fluorobenzonitrile], the figures for the IC50 in assay [1] (setting [4]) and in assay [2] were 79 nM and 257 nM, respectively.
The corresponding values for `N#Cc1c(OC2CC2)cc(Cl)c(F)c1-c1c(-c2ccc3c(=O)[nH]nc(CN)c3c2)cnn1C(F)(F)F` (atropisomer, axis not shown; (P)) [Example 16-119, (P)-2-(4-(4-(aminomethyl)-1-oxo-1,2-dihydrophthalazin-6-yl)-1-(trifluoromethyl)-1H-pyrazol-5-yl)-4-chloro-6-cyclopropoxy-3-fluorobenzonitrile] are 1000 nM and 489 nM.
In the case of `Cn1ncc(-c2cc(Cl)c3c(=O)[nH]nc(CN)c3c2)c1-c1c(F)c(Cl)cc(OC2CC2)c1C#N` [Example 10-25, 2-[4-[4-(aminomethyl)-8-chloro-1-oxo-2H-phthalazin-6-yl]-2-methyl-pyrazol-3-yl]-4-chloro-6-(cyclopropoxy)-3-fluoro-benzonitrile], the IC50 in assay [1] (setting [5]) amounted to 8 nM; in assay [3] (Homo sapiens, HCT-116, 240 h), 30 nM.
The corresponding values for `Cn1ncc(-c2ccc3c(=O)[nH]nc(CN)c3c2)c1-c1c(Cl)cc2ccccc2c1Cl` [Example 4-259, 4-(aminomethyl)-6-[5-(1,3-dichloro-2-naphthyl)-1-methyl-pyrazol-4-yl]-2H-phthalazin-1-one] are 97 nM and 837 nM.
The corresponding values for `Cn1ncc(-c2ccc3c(=O)[nH]nc(CN)c3c2)c1-c1ccc2ncc(F)cc2c1C#N` [Example 4-264, 6-[4-[4-(aminomethyl)-1-oxo-2H-phthalazin-6-yl]-2-methyl-pyrazol-3-yl]-3-fluoro-quinoline-5-carbonitrile] are 23 nM and 83 nM.
Consider `Cc1c(F)c(-c2c(-c3cc(C)c4c(=O)[nH]nc(CN)c4c3)cnn2C)c(C#N)c2ncc(Cl)cc12` (single isomer, unassigned) [Example 16-96, (M)-7-(4-(4-(aminomethyl)-8-methyl-1-oxo-1,2-dihydrophthalazin-6-yl)-1-methyl-1H-pyrazol-5-yl)-3-chloro-6-fluoro-5-methylquinoline-8-carbonitrile], for which the IC50 in assay [1] (setting [5]) was 22 nM; in assay [2] it was 5940 nM.
In the case of `Cn1ncc(-c2ccc3c(=O)[nH]nc(CN)c3c2)c1-c1cccc2cccc(C#N)c12` [Example 4-265, 8-[4-[4-(aminomethyl)-1-oxo-2H-phthalazin-6-yl]-2-methyl-pyrazol-3-yl]naphthalene-1-carbonitrile], the IC50 in assay [1] (setting [5]) came out at 1000 nM; in assay [3] (Homo sapiens, HCT-116, 240 h), 1650 nM.
For `CCc1cccc(-c2c(-c3cc4c(CN)n[nH]c(=O)c4cn3)cnn2C)c1C#N` [Example 17-1, 2-[4-[1-(aminomethyl)-4-oxo-3H-pyrido[3,4-d]pyridazin-7-yl]-2-methyl-pyrazol-3-yl]-6-ethyl-benzonitrile] the same measures were 538 nM and 3870 nM.
Regarding `Cc1c(F)c(-c2c(-c3cc(Cl)c4c(=O)[nH]nc(CN)c4c3)cnn2C)c(C#N)c2ncc(Cl)cc12` (atropisomer, axis not shown; (M)) [Example 16-98, (M)-7-(4-(4-(aminomethyl)-8-chloro-1-oxo-1,2-dihydrophthalazin-6-yl)-1-methyl-1H-pyrazol-5-yl)-3-chloro-6-fluoro-5-methylquinoline-8-carbonitrile], the IC50 in assay [1] (setting [5]) was 25 nM; in assay [2] it was 552 nM.
With `Cn1ncc(-c2ccc3c(=O)[nH]nc(CN)c3c2)c1-c1c(F)c(Cl)cc(OC2CC2)c1C#N` [Example 16-7, 2-(4-(4-(aminomethyl)-1-oxo-1,2-dihydrophthalazin-6-yl)-1-methyl-1H-pyrazol-5-yl)-4-chloro-6-cyclopropoxy-3-fluorobenzonitrile], in assay [1] (setting [6]), the IC50 amounted to 1000 nM.
Consider `Cn1ncc(-c2ccc3c(=O)[nH]nc(CN)c3c2)c1-c1c(F)cc2ccccc2c1C#N` [Example 4-203, 2-(4-(4-(aminomethyl)-1-oxo-1,2-dibydrophthalazin-6-yl)-1-methyl-1H-pyrazol-5-yl)-3-fluoro-1-naphthonitrile], for which the IC50 in assay [1] (setting [4]) was 2 nM.
For `Cn1ncc(-c2ccc3c(=O)[nH]nc(CN)c3c2)c1-c1ccc2ccc(Cl)cc2c1C#N` [Example 4-258, 2-[4-[4-(aminomethyl)-1-oxo-2H-phthalazin-6-yl]-2-methyl-pyrazol-3-yl]-7-chloro-naphthalene-1-carbonitrile], the IC50 in assay [1] (setting [5]) was 28 nM; in assay [3] (Homo sapiens, HCT-116, 240 h) it was 89 nM.
Consider `Cc1ccc(-c2c(-c3ccc4c(=O)[nH]nc(CN)c4c3)cnn2C)c(C#N)c1` [Example 4-106, 2-(4-(4-(aminomethyl)-1-oxo-1,2-dihydrophthalazin-6-yl)-1-methyl-1H-pyrazol-5-yl)-5-methylbenzonitrile], for which, in assay [1] (setting [5]), the IC50 is 26 nM.
For the compound `Cn1ncc(-c2ccc3c(=O)[nH]nc(CN)c3c2)c1-c1c(F)c(Cl)cc(OC2CC2)c1C#N` [Example 16-8, 2-(4-(4-(aminomethyl)-1-oxo-1,2-dihydrophthalazin-6-yl)-1-methyl-1H-pyrazol-5-yl)-4-chloro-6-cyclopropoxy-3-fluorobenzonitrile], the IC50 in assay [1] (setting [6]) came to 0.8 nM.
`Cc1cc(-c2cnn(C)c2-c2c(F)c(Cl)c3ccccc3c2C#N)cc2c(CN)n[nH]c(=O)c12` (atropisomer, axis not shown; (P)) [Example 16-17, (P)-2-[4-[4-(aminomethyl)-8-methyl-1-oxo-2H-phthalazin-6-yl]-2-methyl-pyrazol-3-yl]-4-chloro-3-fluoro-naphthalene-1-carbonitrile]: the IC50 was determined as 129 nM in assay [1] (setting [4]) and 285 nM in assay [3].
Regarding `Cn1ncc(-c2ccc3c(=O)[nH]nc(CN)c3c2)c1-c1cc2ccccn2c1C#N` [Example 4-256, 2-[4-[4-(aminomethyl)-1-oxo-2H-phthalazin-6-yl]-2-methyl-pyrazol-3-yl]indolizine-3-carbonitrile], the IC50 in assay [1] (setting [5]) is 1000 nM.
Take `Cc1cc(-c2cnn(C)c2-c2c(F)c(Cl)c3ccccc3c2C#N)cc2c(CN)n[nH]c(=O)c12` (atropisomer, axis not shown; (M)) [Example 16-18, (M)-2-[4-[4-(aminomethyl)-8-methyl-1-oxo-2H-phthalazin-6-yl]-2-methyl-pyrazol-3-yl]-4-chloro-3-fluoro-naphthalene-1-carbonitrile]: the IC50 was found to be 13 nM in assay [1] (setting [4]) and 19 nM in assay [3].
`Cc1cc(-c2cnn(C)c2-c2c(C#N)cc3ccccc3c2Cl)cc2c(CN)n[nH]c(=O)c12` [Example 10-26, 3-[4-[4-(aminomethyl)-8-methyl-1-oxo-2H-phthalazin-6-yl]-2-methyl-pyrazol-3-yl]-4-chloro-naphthalene-2-carbonitrile]: the IC50 in assay [1] (setting [5]) was 35 nM; in assay [3] (Homo sapiens, HCT-116, 240 h), 83 nM.
With `N#Cc1c(-c2c(-c3ccc4c(=O)[nH]nc(CN)c4c3)cnn2C(F)(F)F)sc2ccccc12` [Example 19-4, 2-(4-(4-(aminomethyl)-1-oxo-1,2-dihydrophthalazin-6-yl)-1-(trifluoromethyl)-1H-pyrazol-5-yl)benzo[b]thiophene-3-carbonitrile], the IC50 in assay [3] (Homo sapiens, HCT-116, 240 h) worked out at 1030 nM; in assay [2] it was 647 nM.

For the origin of these results see patent US20240208912A1 (Mirati Therapeutics, Inc., priority 2021, published 2024).
